Source: article PMC9140716, “Light-Control over Casein Kinase 1δ Activity with Photopharmacology: A Clear Case for Arylazopyrazole-Based Inhibitors” (International Journal of Molecular Sciences, 2022)
Read-outs that look alike come from different tables or passages of the source.

How the values were obtained:
[1] = Reductive stability (DTT), UPLC-MS after incubation in buffer; type: physicochemical; conditions: 10 µM, 0.5 mM DTT, 10 mM MgCl2, pH 7.4, 2 h at 30 °C
Experimental: (§1) Lastly, the chemical stability of the photoswitches was evaluated in the kinase assay buffer. To avoid the oxidation of the kinase substrate peptide, the buffer contains dithiothreitol (DTT) as a reducing agent. Therefore, we presumed that performing multiple switching cycles in this buffer would allow us to gain insight into both the photochemical- and chemical stability of the three photoswitches. […] We hypothesise that the instability of DK398 in the assay buffer was caused due to either poor solubility or interactions with buffer components, such as the BSA protein.
Reductive stability (DTT)
Figure S8. UV-traces (λ = 312 nm) of UPLC-MS measurements after incubation of DK518, DK398 and
DK557 in buffer (10 µM, 0.5 mM DTT, 10 mM MgCl2, pH 7.4) for 2h at 30 °C. Traces show the presence of […]

[2] = Reversible switching cycles in kinase assay buffer containing DTT ((photo)chemical stability); type: physicochemical; conditions: kinase assay buffer with 0.5 mM DTT, 365 nm / 445 nm irradiation
Experimental: as §1
Photochemical evaluation. UV-Vis absorption spectra were recorded on an Agilent 8453 UV-Visible spectrophotometer equipped with an irradiation set-up containing a 365 and 445 nm LED. Stock solutions of DK398, DK518, and DK557 were prepared in DMSO (2.0 mM) and were diluted 100-fold in kinase assay buffer (40 mM Tris-HCl, 10 mM MgCl2, 0.5 mM DTT, 0.1 mg/mL BSA, pH 7.4, final 1% DMSO) or DMSO for spectroscopic characterisation. Reversible switching cycles were performed in a kinase assay buffer to evaluate the (photo)chemical stability. All three compounds were irradiated using UV light (λmax = 365 nm) to perform trans-to-cis isomerisation and blue light (λmax = 445 nm) for the back-reaction. The irradiation time was adjusted to the compound until the corresponding PSS was achieved.
Figure 2 (a) Structures and irradiation-dependent interconversion of the trans and cis isomers of DK398, DK518, and DK557; (b) UV-Vis absorption spectra of DK398, DK518, and DK557 in kinase assay buffer (10–20 µM, 4.8% DMSO) in the thermally adapted (all trans) and irradiated forms; (c) isomer distribution in the photostationary state (pie charts). The pink region represents the percentage of cis-isomer in the PSD as determined by ^1H-NMR (DMSO-d6). […]

CK1δ [3] = molecular target: T1, CK1δ (Homo sapiens, UniProt P48730); experiment: In vitro kinase assay (ATP consumption, Kinase Glo), 'dark' and UV-irradiated 'light' samples; type: biochemical; conditions: for degree of CK1δ inhibition reached in dose-response curve: 'light' and/or 'dark' samples; for difference in activity (potency) between 'light' and 'dark' states: irradiated (365 nm) vs thermally adapted sample, 'light' more potent
Experimental: After evaluating the photochemical properties of the three photoswitches DK398, DK518, and DK557 in detail, an in vitro kinase activity assay was performed. In this assay, the inhibitory activity towards CK1δ of both dark (all-trans) and irradiated (cis-enriched) samples was evaluated to construct dose–response curves for both states. During the enzymatic reaction (2 h), samples were either kept in the dark or irradiated with UV light (λmax = 365 nm). UV light irradiation itself was confirmed to have no effect on CK1δ activity (Figure S9). After the enzymatic reaction, ATP consumption was measured to determine enzyme activity. The ATP consumption of the samples containing the photoswitchable inhibitors was compared to the ATP consumption of a DMSO control to assess the degree of enzyme inhibition.
In vitro kinase assay. Stock solutions (2.0 mM) of the photoswitchable LH846 inhibitors were prepared in DMSO and thermally adapted by heating to c.a. 100 °C for 1 min. Dilutions were made in DMSO to reach 21-fold concentrated solutions of the desired concentrations to be tested in the assay. The assays were performed on white, solid-bottom 384-well plates and electronic, hand-held Gilson pipettes were used. The total volume for the reaction was 10.5 µL. All solutions were applied to the well plate in a dark room to prevent ambient-light-induced photo-isomerisation. Firstly, a solution of CK1δ and substrate peptide RKKKAEpSVASLTSQCSYSS (Anaspec Fermont, CA, USA, custom made) in a kinase assay buffer was aliquoted into the bottom of the wells (9 µL). Next, the 21-fold concentrated solutions of the compound (0.5 μL, final 4.8% DMSO) was pipetted into the bottom of the wells. Lastly, a solution of ATP in water (50 µM, 1 μL) was pipetted into the upper corners of each well (final concentration 4.8 µM). Final concentrations of CK1δ and the substrate peptide were 2 ng/µL and 50 µM, respectively. The enzymatic reaction was started by spinning down the plate (1800× g, 2 min). By employing this method, all reactions were started at the same time, minimising variance between different samples. During the assay, ‘light’ samples were irradiated with UV light (λ = 365 nm, UV lamp Spectroline, ENB-280/FE, 1 × 8 Watt) for the full duration of the assay (2 h). The wells of ‘dark’ samples were carefully covered with an aluminium sticker. After the incubation period (2 h at 30 °C), 10 μL Kinase Glo® (Promega, Madison, WI, USA) was applied into the wells and the luminescent signal was recorded by a plate reader (BioTek Synergy H1). All measurements were carried out in triplicate. Enzyme activity was determined by comparing the ATP consumption of the samples containing the LH846-analogues to that of a DMSO control, set as 100% enzyme activity.

CK1δ [4] = molecular target: T1, CK1δ; set-up: method as in PMID 21954091; conditions: parent inhibitor; read-out: IC50 of LH846 towards CK1δ; cited from earlier work
[5] = 'dark' (all-trans, thermally adapted) samples, 2 h at 30 °C, 4.8 µM ATP, read-out: 50 % inhibition: dark (absolute IC50)
[6] = 'light' (cis-enriched) samples irradiated with UV light 365 nm for the full 2 h, 30 °C, 4.8 µM ATP, read-out: 50 % inhibition: light (absolute IC50)

T1 sequence (P48730 whole entry): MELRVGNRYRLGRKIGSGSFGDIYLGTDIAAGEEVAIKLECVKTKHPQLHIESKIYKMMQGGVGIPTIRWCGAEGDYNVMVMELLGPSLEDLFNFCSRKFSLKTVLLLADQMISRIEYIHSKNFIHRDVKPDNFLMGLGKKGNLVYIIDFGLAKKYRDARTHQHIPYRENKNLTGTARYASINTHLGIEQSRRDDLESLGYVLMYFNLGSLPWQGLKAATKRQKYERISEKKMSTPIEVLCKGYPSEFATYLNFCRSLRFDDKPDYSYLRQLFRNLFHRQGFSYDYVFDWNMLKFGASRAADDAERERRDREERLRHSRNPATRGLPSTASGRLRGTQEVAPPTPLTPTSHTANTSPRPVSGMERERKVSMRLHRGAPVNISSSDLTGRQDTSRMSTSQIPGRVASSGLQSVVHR

| Structure (SMILES) | stability against reduction by DTT [1] | stability over multiple switching cycles [2] | IC50 (CK1δ [3]; [5]) [nM] | IC50 (CK1δ [3]; [6]) [nM] | degree of CK1δ inhibition reached in dose-response curve (CK1δ [3]) | difference in activity (potency) between 'light' and 'dark' states (CK1δ [3]) | IC50 (CK1δ [3]; both 'light' and 'dark' samples, read-out: IC50 values towards CK1δ) [nM] | IC50 (CK1δ [4]) [nM] |
| --- | --- | --- | --- | --- | --- | --- | --- | --- |
| Cc1cc2sc(NC(=O)Cc3ccc(/N=N/c4ccccc4)cc3)nc2cc1Cl [DK398] | No reduction products (hydrazine or aniline) were observed | poor stability | > 10000 | ~1000 | incomplete inhibition | ~10 fold | – | – |
| Cc1cc2sc(NC(=O)Cc3cccc(/N=N/c4ccccc4)c3)nc2cc1Cl [DK518] | No reduction products (hydrazine or aniline) were observed | excellent stability | 340 | 350 | achieved complete enzyme inhibition | completely abolished the difference in activity | ~350 | – |
| Cc1cc2sc(NC(=O)Cn3nc(C)c(/N=N/c4ccccc4)c3C)nc2cc1Cl [DK557] | No reduction products (hydrazine or aniline) were observed | excellent stability | 11600 | 1200 | complete enzyme inhibition upon irradiation | ~10 fold | – | – |
| Cc1cc2sc(NC(=O)Cc3ccccc3)nc2cc1Cl [LH846] | – | – | – | – | – | – | – | 290 |
